The values below come from US8003823B2, “Halo active aromatic sulfonamide organic compounds and odor control uses therefor” (priority 2002, dated 2011).

The nature of data set [1]: Stability of sulfonamide in base formulation at various pHs and alcohols. Type of data set: physicochemical. The protocol:
In order to evaluate the stability of various sulfonamide compounds for use in odor control, the stability of N-chloro-4carboxybenzenesulfonamide disodium salt was evaluated at various pHs. A base sulfonamide formulation was prepared in accordance with the following formulation: […]
The pH of 20 ml sample of the base formulation is 8.7. The temperature of the sample was raised to 50° C. and the sample was allowed to stand for 30 days.
21. The test protocol of Example 20 was repeated except that the pH of the sample was adjusted to 6.0, with 1N sulfuric acid and the sample was allowed to stand for 1 day. At the end of this period 0%, of the N-chloro-4-carboxybenzenesulfonamide disodium salt remained.
22. The test procedure of Example 20 was repeated, wherein the pH of the sample was adjusted to 6.0 with 1N sulfuric acid and the t-Butanol was replaced with ethanol. The solution was allowed to stand 1 day at which time 0% of the sulfonamide compound remained.
23. The test procedure of Example 20 was repeated where the pH of the sample was 8.7 and the t-butanol was replaced with ethanol. The sample was allowed to stand for 7 days. At the end of this period 0%, the N-chloro-4-carboxybenzenesulfonamide disodium salt remained.
24. The test procedure of Example 20 was repeated, wherein the pH of the sample was adjusted to 10.3 with 1N sodium hydroxide and the t-Butanol was replaced with ethanol. The solution was allowed to stand 30 days at which time 70% of the sulfonamide compound remained.
25. The test procedure of Example 20 was repeated, wherein the pH of the sample was adjusted to 6.0 with 1N sulfuric acid and the t-Butanol was replaced with isopropanol. The solution was allowed to stand 1 day at which time 0% of the sulfonamide compound remained.
26. The test procedure of Example 20 was repeated where the pH of the sample was 8.7 and the t-butanol was replaced with isopropanol. The sample was allowed to stand for 7 days. At the end of this period 50%, the N-chloro-4-carboxybenzenesulfonamide disodium salt remained.
27. The test procedure of Example 20 was repeated, wherein the pH of the sample was adjusted to 10.3 with 1N sodium hydroxide and the t-Butanol was replaced with isopropanol. The solution was allowed to stand 30 days at which time 90% of the sulfonamide compound remained.

A short description of data set [2]: Odor control spray test, six person human panel: rotten egg odor (sodium sulfide + acetic acid). The arrangement: key: E=Excellent, immediate removal of odor, no remaining odor.; G=Good, Immediate (within seconds) reduction of odor, very slight but detectable trace odor remains.; F=Fair, Immediate (within seconds) reduction, more pronounced odor remains.; P=Detectable reduction in odor but rate of reduction is slow and a much more pronounced odor remains. As to conditions: 0.1 g 5% sodium sulfide solution + 2 drops glacial acetic acid, 3 g of 1% w/w solution with 0.3% Avenal S-74, pH 8.0-9.0, sprayed, 20° C. How it is done: (§1) For purposes of conducting the test in accordance with the below listed Examples a series of odorous test reagents were prepared. The utilized odorous test reagents are in accordance with the following:
0.1 g of a 5% sodium sulfide solution was added to a beaker and 2 drops of glacial acetic acid was added to prepare the rotten egg scent and used for each test.
(§2) Unless otherwise specified separate 1% w/w solutions in water of each halo active aromatic sulfonamide derivative were prepared for use. Each solution also contained 0.3% Avenal S-74. The pH of the resulting formulations varied between 8.0 and 9.0.
(§3) The testing protocol for Examples 1 thru 12 involved is as follows: The defined odorous reagents were added to a beaker, watch glass, or petri dish. For each aromatic sulfonamide derivative, 3 grams of the formulated odor control solution defined above were sprayed with a trigger sprayer, separately onto each odor (onion, garlic, fox urine, rotten egg. Odor evaluations were then made by a six person human panel.
(§4) The evaluation criteria utilized is as follows;
(§5) All test evaluations were made at 20° C.

Data set [3] is described as follows: Odor control spray test, six person human panel: garlic odor (DMSO). Further details: key: E=Excellent, immediate removal of odor, no remaining odor.; G=Good, Immediate (within seconds) reduction of odor, very slight but detectable trace odor remains.; F=Fair, Immediate (within seconds) reduction, more pronounced odor remains.; P=Detectable reduction in odor but rate of reduction is slow and a much more pronounced odor remains. As to conditions: 1 g DMSO, 3 g of 1% w/w solution with 0.3% Avenal S-74, pH 8.0-9.0, sprayed, 20° C. How it is done:
as §1
DMSO (dimethyl sulfoxide) 1 g was used for each test.
as §2, §3, §4, §5

Data set [4] is described as follows: Odor control spray test, six person human panel: onion odor. As to conditions: 2 g chopped white onion, 3 g of 1% w/w solution with 0.3% Avenal S-74, pH 8.0-9.0, sprayed, 20° C. The arrangement: key: E=Excellent, immediate removal of odor, no remaining odor.; G=Good, Immediate (within seconds) reduction of odor, very slight but detectable trace odor remains.; F=Fair, Immediate (within seconds) reduction, more pronounced odor remains.; P=Detectable reduction in odor but rate of reduction is slow and a much more pronounced odor remains. How it is done:
as §1
2 g samples of chopped white onion (Approximately ⅛″ cubes) were prepared and used for each test.
as §2, §3, §4, §5

Data set [5] is described as follows: Odor control spray test, six person human panel: fox urine odor. As to conditions: 0.5 g red fox urine, 3 g of 1% w/w solution with 0.3% Avenal S-74, pH 8.0-9.0, sprayed, 20° C. The arrangement: key: E=Excellent, immediate removal of odor, no remaining odor.; G=Good, Immediate (within seconds) reduction of odor, very slight but detectable trace odor remains.; F=Fair, Immediate (within seconds) reduction, more pronounced odor remains.; P=Detectable reduction in odor but rate of reduction is slow and a much more pronounced odor remains. The protocol: as §1
0.5 g of deer hunter's grade red fox urine was used for each test.
as §2, §3, §4, §5

Turning to “N-chloro-4-carboxybenzenesulfonamide disodium salt”, the sulfonamide compound remained in data set [1] (base formulation with t-Butanol, pH 8.7, 50° C., 30 days) came out at 99.5%; in data set [1] (t-Butanol replaced with ethanol, pH 6.0, 50° C., 1 day), 0%; in data set [1] (t-Butanol replaced with ethanol, pH 10.3 with 1N sodium hydroxide, 50° C., 30 days), 70%; in data set [1] (t-Butanol replaced with isopropanol, pH 6.0, 50° C., 1 day) it was 0%; in data set [1] (t-Butanol replaced with isopropanol, pH 10.3 with 1N sodium hydroxide, 50° C., 30 days) it was 90%; in data set [1] (t-Butanol, pH adjusted to 6.0 with 1N sulfuric acid, 50° C., 1 day), 0%. Besides, the sulfonamide compound remained in data set [1] (t-butanol replaced with ethanol, pH 8.7, 50° C., 7 days) was determined as 0%; in data set [1] (t-butanol replaced with isopropanol, pH 8.7, 50° C., 7 days) it was 50%.
On to `O=[N+]([O-])c1ccc(S(=O)(=O)[N-]Cl)cc1.[Na+]` [Example 11], for which the “Rotten Egg odor evaluation” value in data set [2] is given as “F”. Moreover, the Garlic odor evaluation result in data set [3] is on record as “F”. Besides, the Onion odor evaluation result in data set [4] was “G”. Also, the “Fox Urine odor evaluation” value in data set [5] is “E”.
In the case of `O=C([O-])c1ccc(S(=O)(=O)[N-]Cl)cc1.[Na+].[Na+]` [Example 12], in data set [2], the “Rotten Egg odor evaluation” value is on record as “E”. For the same compound, in data set [3], the Garlic odor evaluation result is given as “F”. Besides, the Onion odor evaluation result in data set [4] is recorded as “E”. For the same compound, the “Fox Urine odor evaluation” value in data set [5] was “E”.
